Laboratory results published in patent US9988430B2, “Stable GLP-1 based GLP-1/glucagon receptor co-agonists” (Novo Nordisk A/S, priority 2014, dated 2018).
*1 amine or outer side, *2 acyl side, *3 side chain or, on linkers, in order; H or OH if unused. Where a SMILES comes first, the peptide text is derived from it. Bridges are numbered along the chain shown (N, C = ends). Roman numbers before positions name the chains, in order. Side-chain parts run from the residue outwards. [ ]: non-standard residue; d: D form. The star is where a group is joined. C18 diacid = O=C(O)CCCCCCCCCCCCCCCCC(=O)*; γGlu = O=C(O)[C@H](CCC(=O)[*:2])N[*:1]; Desaminohistidyl = O=C(CCc1c[nH]cn1)*; Ac4c = NC1(C(=O)O)CCC1; AEEA = NCCOCCOCC(=O)O; Aib = CC(C)(N)C(=O)O

What follows are compounds tested against T1, human GLP-1 receptor (Homo sapiens, UniProt P43220) (assay: Assay (II)(a): GLP-1 receptor binding, [125I]GLP-1 displacement, SPA on BHK membranes). Conditions: displacement of [125I]GLP-1, membranes with human GLP-1 receptor; read-out: IC50 GLP-1R.
T1 construct: expressed in transfected cells; host or cells: membranes of BHK cells, parent line BHKTS13, clone FCW467-12A
Experimental: Assay (II): GLP-1 and Glucagon Receptor Binding The purpose of this assay is to test the in vitro receptor binding activity of the GLP-1 derivatives of the invention. (a) GLP-1 Receptor Binding The GLP-1 receptor (GLP-1R) binding is a measure of the affinity of a derivative for the human GLP-1 receptor. The GLP-1 receptor binding of each derivatives were determined with competitive binding, displacing [^125I]GLP-1 bound to GLP-1 receptors expressed in cell membranes associated with wheat germ agglutinin (WGA) scintillation proximity assay (SPA) beads. Each derivative was added in a series of concentrations to isolated membranes comprising the human GLP-1 receptor and displacement of the labelled radioligand was monitored. The receptor binding was reported as the concentration at which half of the labelled ligand is displaced from the receptor, the IC^50 value. The following chemicals were used in the assay: MEM w/o phenol red (Gibco 11880-028), Pen/strep (Invitrogen 15140-122), G418 (Invitrogen 10131-027), 1 M Hepes (Gibco 15630), EDTA (Invitrogen 15575-038), PBS (Invitrogen 14190-094), fetal calf serum (Invitrogen 16140-071), EGTA, MgCl2 (Merck 1.05832.1000), Tween 20 (Amresco 0850C335), SPA particles (wheat germ agglutinin (WGA) SPA beads, Perkin Elmer RPNQ0001), [125I]-GLP-1]-(7-36)NH2 (produced in-house), OptiPlate™-96 (Perkin Elmer). Buffer 1 consisted of 20 mM Na-HEPES plus 10 mM EDTA and pH was adjusted to 7.4. Buffer 2 consisted of 20 mM Na-HEPES plus 0.1 mM EDTA and pH was adjusted to 7.4. Assay buffer consisted of 50 mM HEPES supplemented with 5 mM EGTA, 5 mM MgCl2, 0.005% Tween 20 and pH was adjusted to 7.4. A 0.02% albumin stock consisted of HSA dissolved at 0.02% (w/v) in assay buffer. The cells used in this assay (clone FCW467-12A) were BHK cells with BHKTS13 as a parent cell line. The cells express the human GLP-1 receptor. The cells were grown at 5% CO2 in DMEM, 10% fetal calf serum, 1% Pen/Strep (Penicillin/Streptomycin) and 1.0 mg/ml of the selection marker G418. To make a membrane preparation the cells were grown to approximately 80% confluence. The cells were washed twice in phosphate-buffered saline and harvested. The cells were pelleted using a brief centrifugation and the cell pellet was kept on ice. The cell pellet was homogenised with ULTRA-THURRAX dispersing instrument for 20-30 seconds in a suitable amount of buffer 1 (e.g., 10 ml). The homogenate was centrifuged for 15 minutes. The pellet was re-suspended (homogenised) in 10 ml buffer 2 and centrifuged. This step was repeated once more. The resulting pellet was re-suspended in buffer 2 and the protein concentration was determined. The membranes were aliquoted and stored at minus 80° C. • 1. For the receptor binding assay 50 μl of the assay buffer was added to each well of an assay plate. • 2. Test compounds were serially diluted to give the following concentrations: 8×10EE-7 M, 8×10EE-8 M, 8×10EE-9 M, 8×10EE-10 M, 8×10EE-11 M, 8×10EE-12 M and 8×10EE-13 M. Twenty-five μl were added to appropriate wells in the assay plate. • 3. Cell membrane aliquots were thawed and diluted to their working concentration. Fifty μl were added to each well in the assay plate. • 4. WGA SPA beads were suspended in assay buffer at 20 mg/ml. The suspension was diluted to 10 mg/ml in assay buffer just prior to addition to the assay plate. Fifty μl were added to each well in the assay plate. • 5. The incubation was started by adding 25 μl of 480 pM solution of [125I]-GLP-1]-(7-36)NH2 to each well of the assay plate. A 25 μl aliquot was reserved for measuring total counts/well. • 6. The assay plate was incubated for 2 h at 30° C. • 7. The assay plate was centrifuged for 10 min. • 8. The assay plate was read in a Perkin Elmer TopCount NXT instrument. Calculations The data from the TopCount instrument were transferred to GraphPad Prism software. The software averaged the values for the replicates and performed a non-linear regression. IC50 values were calculated by the software and reported in nM. […]

T1 sequence (P43220 24-463): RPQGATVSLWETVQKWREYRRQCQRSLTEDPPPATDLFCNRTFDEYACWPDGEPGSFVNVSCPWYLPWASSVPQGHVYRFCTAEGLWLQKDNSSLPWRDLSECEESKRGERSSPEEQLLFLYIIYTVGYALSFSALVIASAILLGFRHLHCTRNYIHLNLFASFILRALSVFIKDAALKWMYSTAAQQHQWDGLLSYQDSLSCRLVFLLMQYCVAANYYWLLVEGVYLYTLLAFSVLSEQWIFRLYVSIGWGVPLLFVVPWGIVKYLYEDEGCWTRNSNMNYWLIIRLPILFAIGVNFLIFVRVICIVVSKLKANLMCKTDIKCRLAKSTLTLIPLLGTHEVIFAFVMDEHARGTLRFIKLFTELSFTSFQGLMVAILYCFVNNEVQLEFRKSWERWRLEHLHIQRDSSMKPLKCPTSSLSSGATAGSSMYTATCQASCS

Row | IC50 [nM] | SMILES
1 | 0.2 | CC[C@H](C)[C@H](NC(=O)[C@H](Cc1ccccc1)NC(=O)[C@H](CCC(=O)O)NC(=O)[C@H](CCCNC(=N)N)NC(=O)[C@H](C)NC(=O)[C@H](C)NC(=O)[C@H](CCCNC(=N)N)NC(=O)[C@H](CCCCNC(=O)CC[C@H](NC(=O)CC[C@H](NC(=O)COCCOCCNC(=O)COCCOCCNC(=O)CC[C@H](NC(=O)CCCCCCCCCCCCCCCCC(=O)O)C(=O)O)C(=O)O)C(=O)O)NC(=O)[C@H](CCC(=O)O)NC(=O)[C@H](CC(C)C)NC(=O)[C@H](Cc1ccc(O)cc1)NC(=O)[C@H](CCCCN)NC(=O)[C@H](CO)NC(=O)[C@@H](NC(=O)[C@H](CC(=O)O)NC(=O)[C@H](CO)NC(=O)[C@@H](NC(=O)[C@H](Cc1ccccc1)NC(=O)[C@@H](NC(=O)CNC(=O)[C@H](Cc1c[nH]cn1)NC(=O)C1(NC(=O)CCc2c[nH]cn2)CCC1)[C@@H](C)O)[C@@H](C)O)C(C)C)C(=O)N[C@@H](C)C(=O)N[C@@H](Cc1c[nH]c2ccccc12)C(=O)N[C@@H](CC(C)C)C(=O)N[C@@H](CC(C)C)C(=O)N[C@@H](CCCCN)C(=O)N[C@H](C(N)=O)[C@@H](C)O [Example 32, N^ε22-[(4S)-4-carboxy-4-[[(4S)-4-carboxy-4-[[2-[2-[2-[[2-[2-[2-[[(4S)-4-carboxy-4-(17-carboxyheptadecanoylamino)butanoyl]amino]ethoxy]ethoxy]acetyl]amino]ethoxy]ethoxy]acetyl]amino]butanoyl]amino]butanoyl]-[Imp7,Acb8,His9,Lys18,Lys22,Arg23,Arg26,Leu33,Thr35]-GLP-1-(7-35)-peptide amide] (Desaminohistidyl-[Ac4c]HGTFTSDVSKYLEK([γGlu-γGlu-AEEA-AEEA-γGlu-C18 diacid])RAAREFIAWLLKT-NH2)
2 | 0.2 | CC[C@H](C)[C@H](NC(=O)[C@H](Cc1ccccc1)NC(=O)[C@H](CCC(=O)O)NC(=O)[C@H](CCCNC(=N)N)NC(=O)[C@H](C)NC(=O)[C@H](C)NC(=O)[C@H](CCC(N)=O)NC(=O)[C@H](CCC(=O)O)NC(=O)[C@H](CCC(=O)O)NC(=O)[C@H](CC(C)C)NC(=O)[C@H](Cc1ccc(O)cc1)NC(=O)[C@H](CCCCN)NC(=O)[C@H](CO)NC(=O)[C@@H](NC(=O)[C@H](CC(=O)O)NC(=O)[C@H](CO)NC(=O)[C@@H](NC(=O)[C@H](Cc1ccccc1)NC(=O)[C@@H](NC(=O)CNC(=O)[C@H](Cc1c[nH]cn1)NC(=O)C(C)(C)NC(=O)CCc1c[nH]cn1)[C@@H](C)O)[C@@H](C)O)C(C)C)C(=O)N[C@@H](C)C(=O)N[C@@H](Cc1c[nH]c2ccccc12)C(=O)N[C@@H](CC(C)C)C(=O)N[C@H](C(=O)N[C@@H](CCCCNC(=O)COCCOCCNC(=O)COCCOCCNC(=O)CC[C@H](NC(=O)CC[C@H](NC(=O)CCCCCCCCCCCCCCCCC(=O)O)C(=O)O)C(=O)O)C(=O)N[C@H](C(N)=O)[C@@H](C)O)[C@@H](C)CC [Example 42, N^ε34-[2-[2-[2-[[2-[2-[2-[[(4S)-4-carboxy-4-[[(4S)-4-carboxy-4-(17-carboxyheptadecanoylamino)butanoyl]amino]butanoyl]amino]ethoxy]ethoxy]acetyl]amino]ethoxy]ethoxy]acetyl]-[Imp7,Aib8, His9,Lys18,Glu22,Arg26,Ile33,Thr35]-GLP-1-(7-35)-peptide amide] (Desaminohistidyl-[Aib]HGTFTSDVSKYLEEQAAREFIAWLIK([AEEA-AEEA-γGlu-γGlu-C18 diacid])T-NH2)
3 | 2.3 | CC[C@H](C)[C@H](NC(=O)[C@H](Cc1ccccc1)NC(=O)[C@H](CCC(=O)O)NC(=O)[C@H](CCCNC(=N)N)NC(=O)[C@H](C)NC(=O)[C@H](C)NC(=O)[C@H](CCC(N)=O)NC(=O)[C@H](CCC(=O)O)NC(=O)[C@H](CCC(=O)O)NC(=O)[C@H](CC(C)C)NC(=O)[C@H](Cc1ccc(O)cc1)NC(=O)[C@H](CCCCN)NC(=O)[C@H](CO)NC(=O)[C@@H](NC(=O)[C@H](CC(=O)O)NC(=O)[C@H](CO)NC(=O)[C@@H](NC(=O)[C@H](Cc1ccccc1)NC(=O)[C@@H](NC(=O)CNC(=O)[C@H](Cc1c[nH]cn1)NC(=O)C(C)(C)NC(=O)CCc1c[nH]cn1)[C@@H](C)O)[C@@H](C)O)C(C)C)C(=O)N[C@@H](C)C(=O)N[C@@H](Cc1c[nH]c2ccccc12)C(=O)N[C@@H](CC(C)C)C(=O)N[C@@H](CC(C)C)C(=O)N[C@@H](CCCCNC(=O)CC[C@H](NC(=O)CC[C@H](NC(=O)[C@H](CO)NC(=O)CNC(=O)[C@H](CCC(=O)O)NC(=O)[C@H](CO)NC(=O)CNC(=O)CCCCCCCCCCCCCCCCC(=O)O)C(=O)O)C(=O)O)C(=O)N[C@H](C(=O)O)[C@@H](C)O [Example 27, N^ε34-[(4S)-4-carboxy-4-[[(4S)-4-carboxy-4-[[(2S)-2-[[2-[[(2S)-4-carboxy-2-[[(2S)-2-[[2-(17-carboxyheptadecanoylamino)acetyl]amino]-3-hydroxypropanoyl]amino]butanoyl]amino]acetyl]amino]-3-hydroxypropanoyl]amino]butanoyl]amino]butanoyl]-[Imp7,Aib8,His9,Lys18,Glu22,Arg26,Leu33,Thr35]-GLP-1-(7-35)-peptide] (I: Desaminohistidyl-[Aib]HGTFTSDVSKYLEEQAAREFIAWLLKT-OH / II: {C18 diacid}-GSEGS[γGlu][γGlu]; amide I:27-II:C)
4 | 3.2 | CC[C@H](C)[C@H](NC(=O)[C@H](Cc1ccccc1)NC(=O)[C@H](CCC(=O)O)NC(=O)[C@H](CCCNC(=N)N)NC(=O)[C@H](C)NC(=O)[C@H](C)NC(=O)[C@H](CCC(N)=O)NC(=O)[C@H](CCC(=O)O)NC(=O)[C@H](CCC(=O)O)NC(=O)[C@H](CC(C)C)NC(=O)[C@H](Cc1ccc(O)cc1)NC(=O)[C@H](CCCCN)NC(=O)[C@H](CO)NC(=O)[C@H](Cc1ccc(O)cc1)NC(=O)[C@H](CC(=O)O)NC(=O)[C@H](CO)NC(=O)[C@@H](NC(=O)[C@H](Cc1ccccc1)NC(=O)[C@@H](NC(=O)CNC(=O)[C@H](Cc1c[nH]cn1)NC(=O)C(C)(C)NC(=O)CCc1c[nH]cn1)[C@@H](C)O)[C@@H](C)O)C(=O)N[C@@H](C)C(=O)N[C@@H](Cc1c[nH]c2ccccc12)C(=O)N[C@@H](CC(C)C)C(=O)N[C@@H](CC(C)C)C(=O)N[C@@H](CCCCN)C(=O)NCC(=O)N[C@@H](CCCCNC(=O)CNC(=O)[C@H](CO)NC(=O)[C@H](CCC(=O)O)NC(=O)CNC(=O)[C@H](CO)NC(=O)CC[C@H](NC(=O)CC[C@H](NC(=O)CCCCCCCCCCCCCCCCC(=O)O)C(=O)O)C(=O)O)C(=O)NCC(=O)O [Example 14, N^ε36-[2-[[(2S)-2-[[(2S)-4-carboxy-2-[[2-[[(2S)-2-[[(4S)-4-carboxy-4-[[(4S)-4-carboxy-4-(17-carboxyheptadecanoylamino)butanoyl]amino]butanoyl]amino]-3-hydroxypropanoyl]amino]acetyl]amino]butanoyl]amino]-3-hydroxypropanoyl]amino]acetyl]-[Imp7,Aib8,His9,Tyr16,Lys18,Glu22,Arg26,Leu33,Lys36]-GLP-1-(7-37)-peptide] (I: Desaminohistidyl-[Aib]HGTFTSDYSKYLEEQAAREFIAWLLKGKG-OH / II: {C18 diacid-γGlu-γGlu}-SGESG; amide I:29-II:C)
